From EP0471612B1, “New steroids having an amide substituted group in the 11-beta position, their preparation, their use as medicines and pharmaceutical composition thereof” (ROUSSEL UCLAF, priority 1990, dated 1992)
Like-named read-outs stand apart in the source and are kept apart here.

Tests used:
[1] = target: T1, récepteur estrogène de l'utérus de souris (Mus musculus, UniProt P19785); assay: Relative binding affinity (ARL) for the estrogen receptor, mouse uterus cytosol, displacement of tritiated estradiol; settings: ARL = 100 (CH)/(CX), estradiol = 100, head prints 0°C; for Récepteurs Oestrogène Temps d'incubation à 0°C 5H (affinité relative de liaison, ARL): incubation 5H (second time); for Récepteurs Oestrogène Temps d'incubation à 0°C 2H (affinité relative de liaison, ARL): incubation 2H
T1 construct: les utérus sont prélevés puis homogénéisés a 0°C; from tissue; host or cells: uterus of immature female mice (18-21 days), cytosol (105 000 g supernatant)
T1 sequence (P19785 1-599): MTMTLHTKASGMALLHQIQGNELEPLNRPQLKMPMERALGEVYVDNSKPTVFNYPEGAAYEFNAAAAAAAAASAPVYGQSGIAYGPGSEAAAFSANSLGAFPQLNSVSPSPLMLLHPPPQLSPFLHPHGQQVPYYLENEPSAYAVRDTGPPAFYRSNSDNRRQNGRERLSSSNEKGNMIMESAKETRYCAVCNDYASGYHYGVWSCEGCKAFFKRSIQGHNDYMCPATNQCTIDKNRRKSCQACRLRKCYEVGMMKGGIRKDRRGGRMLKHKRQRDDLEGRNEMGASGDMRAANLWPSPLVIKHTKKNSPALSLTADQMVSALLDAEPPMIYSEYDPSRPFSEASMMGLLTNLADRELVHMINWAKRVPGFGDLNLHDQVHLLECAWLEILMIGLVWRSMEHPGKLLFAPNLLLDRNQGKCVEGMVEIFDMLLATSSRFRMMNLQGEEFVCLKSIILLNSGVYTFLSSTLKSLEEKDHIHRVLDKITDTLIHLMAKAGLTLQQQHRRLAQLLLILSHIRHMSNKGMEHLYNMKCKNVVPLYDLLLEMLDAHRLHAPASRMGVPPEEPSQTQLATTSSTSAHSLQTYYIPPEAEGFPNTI
Experimental: Des souris femelles impubères âgées de 18 a 21 jours sont sacrifiées, les utérus sont prélevés puis homogénéisés a 0°C à l'aide d'un Potter teflon-verre dans une solution tamponnée TS (Tris 10 mM, saccharose 0,25 M, HCl pH 7,4 (1 g de tissu pour 25 ml de TS). L'homogénat est ensuite ultracentrifugé (105 000 g x 90 mn) à 0°C. Des aliquotes du surnageant ainsi obtenu, sont incubées a 0°C ou a 25°C pendant un temps (t) avec une concentration constante (T) d'estradiol tritié en présence de concentrations croissantes (0 - 1000.10^-9 M) soit d'estradiol froid, soit du produit froid a tester. La concentration d'estradiol tritié lié (B) est ensuite mesurée dans chaque incubat par la technique d'adsorption au charbon-dextran.
Le calcul de l'affinité relative de liaison (ARL) est identique pour tous les récepteurs.
On trace les 2 courbes suivantes : le pourcentage de l'hormone tritiée liée (B)/(T) [formula] en fonction du logarithme de la concentration de l'hormone de référence froide et (B)/(T) [formula] en fonction du logarithme de la concentration du produit froid testé.
On détermine la droite d'équation I50 = ((B)/(T)max +(B)/(T)min)/2. [formula] (B)/(T) [formula] max = Pourcentage de l'hormone tritiée liée pour une incubation de cette hormone tritiée à la concentration (T). (B)/(T) [formula] min = Pourcentage de l'hormone tritiée liée pour une incubation de cette hormone tritiée à la concentration (T) en présence d'un grand excès d'hormone froide (2500.10^-9M).
Les intersections de la droit I50 et des courbes permettent d'évaluer les concentrations de l'hormone de référence froide (CH) et du produit froid testé (CX) qui inhibent de 50 % la liaison de l'hormone tritiée sur le récepteur.
L'affinité relative de liaison (ARL) du produit testé est déterminée par l'équation ARL = 100((CH))/((CX)). [formula]

[2] = test system: cellules tumorales mammaires MCF-7; assay: Anti-proliferative activity on growth of MCF-7 mammary tumour cells (DNA assay with DABA); format: cell-based; settings: Homo sapiens, MCF7, 144 h, read-out: CI50 (concentration qui inhibe de 50 % la croissance des cellules MCF7)
Experimental: Les lignées MCF-7 sont maintenues en culture en milieu SVF(1) à 37°C en atmosphère humide contenant 5 % CO2. Les cellules à subconfluence sont récoltées par trypsination (trypsine 0,05 %, EDTA 0,02 %) puis rincées par centrifugation douce. Un échantillon des cellules en suspension est compté sur cellule de Malassez.
Les cellules resuspendues dans le milieu SVF sont ensemencées à raison de 30.000 cellules par puits dans des plaques multipuits (24 puits de 2,5 cm^2). Vingt quatre heures après l'ensemencement (JO), le produit à tester est ajouté au milieu en solution éthanolique (concentration finale en éthanol : 0,1 %), à la concentration de 10^-12 à 10^-6M, les puits contrôles recevant la même concentration en éthanol. Les milieux sont renouvelés toutes les 48 heures. En fin d'expérience (J6), le milieu est aspiré et les cellules sont immédiatement fixées par 150 microlitres de méthanol afin de doser l'ADN.
L'activité anti-proliférative des produits est évaluée par leur capacité à inhiber l'augmentation d'ADN.
L'ADN est dosé par une méthode fluorimétrique utilisant le DABA (Acide 3,5 diaminobenzoïque) (2) : 150 microlitres de DABA sont ajoutés dans chaque puits; les plaques sont alors incubées 45 mn à 56°C, puis 2 ml d'HCl 1N sont ajoutés. La fluorescence est mesurée à l'aide d'un fluorimètre (longueur d'onde excitatrice : 408 nm, longueur d'onde d'émission : 510 nm).
La quantité d'ADN par puits est évaluée par rapport à une gamme étalon obtenue en traitant dans les mêmes conditions un standard d'ADN de thymus de veau.
La concentration en nm qui inhibe de 50 % la croissance des cellules MCF7 (CI50) a été déterminée de la manière indiquée ci-dessus : […]

[3] = MCF-7, product 10^-12 to 10^-6M, 6 days (J6), DNA measured

| Récepteurs Oestrogène Temps d'incubation à 0°C 5H (affinité relative de liaison, ARL) [1] | Récepteurs Oestrogène Temps d'incubation à 0°C 2H (affinité relative de liaison, ARL) [1] | IC50 [2, 3] [nM] | Récepteurs Oestrogène Temps d'incubation à 0°C 5H (affinité relative de liaison, ARL) ([1]; listed as exemple 14) | Structure (SMILES) | IC50 [2] [nM] |
| --- | --- | --- | --- | --- | --- |
| 16 |  |  |  | CCCCN(C)C(=S)CSCCCCCOc1ccc([C@H]2C[C@]3(C)[C@@H](O)CC[C@H]3[C@@H]3CCc4cc(O)ccc4[C@H]32)cc1 [Exemple 18] |  |
| 29 | 3,3 | 0.007 |  | CCCCN(C)C(=O)COCCCCCCOc1ccc([C@H]2C[C@]3(C)[C@@H](O)CC[C@H]3[C@@H]3CCc4cc(O)ccc4[C@H]32)cc1 [Exemple 6] |  |
| 47 | 2,8 | 0.015 | affinité marquée | C#C[C@]1(O)CC[C@H]2[C@@H]3CCc4cc(O)ccc4[C@H]3[C@@H](CCCCCCCCOCC(=O)N(C)C(C)C)C[C@@]21C [Exemple 14, 2-((8-(3,17béta-dihydroxy19-nor-17alpha-pregna-1,3,5(10)-trien-20-yn-11béta-yl)octyl)oxy)-N-méthyl-N-(1-méthyléthyl)-acétamide] |  |
| 20 |  | 0.03 |  | CCCCN(C)C(=S)COCCCCCOc1ccc([C@H]2C[C@]3(C)[C@@H](O)CC[C@H]3[C@@H]3CCc4cc(O)ccc4[C@H]32)cc1 [Exemple 1] |  |

| Structure (SMILES) | Récepteurs Oestrogène Temps d'incubation à 0°C 5H (affinité relative de liaison, ARL) [1] | Récepteurs Oestrogène Temps d'incubation à 0°C 2H (affinité relative de liaison, ARL) [1] | IC50 [2, 3] [nM] | Récepteurs Oestrogène Temps d'incubation à 0°C 5H (affinité relative de liaison, ARL) ([1]; listed as exemple 14) | IC50 [2] [nM] |
| --- | --- | --- | --- | --- | --- |
| CN(CC(F)(F)C(F)(F)C(F)(F)F)C(=O)CCCCCCCOc1ccc([C@H]2C[C@]3(C)[C@@H](O)CC[C@H]3[C@@H]3CCc4cc(O)ccc4[C@H]32)cc1 [Exemple 5, 8-(4-(3,17béta-dihydroxy-estra-1,3,5(10)-trien-11béta-yl)phénoxy)-N-(2,2,3,3,4,4,4-heptafluorobutyl)-N-méthyl-octanamide] | 23 | 0 |  |  | 0.02 |
| CCCCN(C)C(=S)CCCCCCCOc1ccc([C@H]2C[C@]3(C)[C@@H](O)CC[C@H]3[C@@H]3CCc4cc(O)ccc4[C@H]32)cc1 [Exemple 2, N-butyl-8-(4-(3,17béta-dihydroxy-estra-1,3,5(10)-trien-11béta-yl)phénoxy)-N-méthyl-octanethioamide] | 16 |  | 0.035 |  |  |
| CCCCN(C)C(=O)CSCCCCCc1ccc([C@H]2C[C@]3(C)[C@@H](O)CC[C@H]3[C@@H]3CCc4cc(O)ccc4[C@H]32)cc1 [Exemple 9, N-butyl-2-((5-(4-(3,17béta-dihydroxy-estra-1,3,5(10)-trien-11béta-yl)phényl)pentyl)thio)-N-méthyl-acétamide] | 11,7 |  | 0.009 |  |  |
